The values that follow come from ChEMBL document CHEMBL4043272, “Synthesis and in vitro biological evaluation of new pyrimidines as glucagon-like peptide-1 receptor agonists” (Bioorg Med Chem Lett, 2017).

Holding throughout (format): cell-based
Assay [1] deals with T1, Glucagon-like peptide 1 receptor (Mus musculus) (UniProt O35659).
T1 sequence (whole entry): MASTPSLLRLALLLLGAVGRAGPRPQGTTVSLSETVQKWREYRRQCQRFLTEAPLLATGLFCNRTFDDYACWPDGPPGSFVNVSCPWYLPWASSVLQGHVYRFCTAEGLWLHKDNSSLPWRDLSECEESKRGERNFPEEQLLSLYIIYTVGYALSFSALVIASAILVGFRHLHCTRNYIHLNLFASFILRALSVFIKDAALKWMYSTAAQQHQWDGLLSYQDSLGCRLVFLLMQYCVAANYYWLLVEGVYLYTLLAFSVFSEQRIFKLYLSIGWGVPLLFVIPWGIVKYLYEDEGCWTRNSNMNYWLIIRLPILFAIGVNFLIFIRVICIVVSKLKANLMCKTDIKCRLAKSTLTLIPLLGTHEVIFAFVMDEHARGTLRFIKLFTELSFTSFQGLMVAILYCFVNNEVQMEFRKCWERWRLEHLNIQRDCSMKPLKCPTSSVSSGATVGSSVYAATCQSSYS
Description: Agonist activity at GLP1 receptor in mouse BetaTC6 cells assessed as increase in insulin secretion at 10^-15 to 10^-12 M after 120 mins by sandwich ELISA.

Assay [2] concerns the target T1, Glucagon-like peptide 1 receptor (Mus musculus). Put plainly: Agonist activity at GLP1 receptor in mouse BetaTC6 cells assessed as increase in glucose-dependent insulin secretion at 10^-15 M after 120 mins by sandwich ELISA.
The target is the same in assay [3]. Description: Agonist activity at GLP1 receptor in mouse BetaTC6 cells assessed as increase in insulin secretion at 10^-15 to 10^-9 M after 120 mins by sandwich ELISA.
For assay [4] the target is unchanged. Description: Agonist activity at GLP1 receptor in mouse BetaTC6 cells assessed as increase in glucose-dependent insulin secretion after 120 mins by sandwich ELISA.
The target is the same in assay [5]. Put plainly: Agonist activity at GLP1 receptor in mouse BetaTC6 cells assessed as increase in glucose-dependent insulin secretion at 10^-15 to 10^-9 M after 120 mins by sandwich ELISA.

Calls of active or inactive are those of the source. The rule behind the calls is not given here.

As to `c1ccc(CNc2ccnc(NC3CCCCCC3)n2)cc1`, the result in assay [1] and in assay [2] was Active.
As for `Cc1ccc(S(=O)(=O)NC(=O)Nc2ccnc(N)n2)cc1`, the outcome in assay [3] was Active. In addition, in assay [4], the result was inactive.
Consider `O=C(Nc1nccc(N/N=C/c2ccc(F)cc2)n1)NC1CCCC1`, for which the outcome in assay [1] was Active. Also, the result in assay [5] was inactive.
